Measurements from patent US20260102387A1, “IMMUNOSUPPRESSIVE COMPOUNDS” (UNIVERSITÄT BASEL, priority 2022, published 2026).

Key:
[1] = system: early cytomegalovirus promoter; experiment: Screening assay control: CMV promoter driven RFP in RBL cells (microplate reader); format: cell-based; conditions: 5 μg/ml, 48 h, microplate reader, DMSO = 100, read-out: RFP values (%)
Experimental: As an unrelated promoter, the early cytomegaloviral promoter element was cloned into a promoterless Red Fluorescence Protein (RFP) expression plasmid. Rat Basophil Leukemia (RBL) cells were transfected with the plasmid, stable RFP expressing cells enriched, incubated with various compounds and were assessed for red fluorescence values. Analyzing the inhibition of an unrelated promoter (in this case, early cytomegalovirus promoter) that drove Red Fluorescence Protein (RFP) expression assessed non-specificity of the compound under analysis.
(§1) The plasmids were independently transfected into immune cells (Rat basophil Leukemia, RBL cells) to generate green and red fluorescent RBL cells that were subsequently enriched by means of flow cytometry. These cells were then mixed in equal ratio (1:1) and incubated in a 96 well plate at 100,000 cells/well in a volume of 200 μl of phenol red free RPMI supplemented with 8% fetal calf serum, L-glutamate and antibiotics (penicillin, streptomycin) and various compounds (3 and 5 μg/ml concentrations) from available chemical libraries. At defined time points (8 h, 24 h and 48 h), the GFP and RFP fluorescence was measured using a 96 well microplate reader (Synergy, BioTek Instruments). […] Selected compounds show different levels of modulation of coronin 1 promoter driven GFP and CMV promoter driven RFP fluorescence. GFP and RFP fluorescence were analyzed with a microplate reader upon incubation with the top coronin 1 promoter inhibiting compounds. Shown are percentage of GFP reduction (left column) and percentage of RFP reduction (right column) for the compounds at 5 μg/ml concentration at 48 h. Cycloheximide (CHX) serves as positive control whereas media and DMSO serve as negative controls. […] Cells were imaged using a fluorescence microscope to validate fluorescence inhibition (FIG. 3A) and as well assess morphology and viability (in addition to GFP down regulation confirmation). In addition, quantitative Polymerase Chain Reaction (qPCR) for coronin 1 mRNA transcripts reveal reduction with compound 11 (FIG. 3B). The primers used for the qPCR on RBL cells are listed below as follows;

coronin 1 promoter [2] = experiment: Fluorescence-based screening assay: coronin 1 promoter driven GFP in RBL cells (microplate reader / microscopy); format: cell-based; conditions: RBL; 5 μg/ml, 48 h, microplate reader, DMSO = 100; read-out: GFP values (%)
Experimental: The murine coronin 1 promoter sequences of SEQ ID NO: 1-6 were each cloned into a plasmid lacking a promoter (promoterless) but containing a destabilized Green Fluorescence Protein (GFP) cassette. Rat Basophil Leukemia (RBL) cells were transfected with the plasmids, stable GFP expressing cells were enriched, incubated with various compounds and assessed for coronin 1 promoter inhibition by assessing green fluorescence values (FIG. 2).
as §1, with “[…])” for “streptomycin) and various compounds (3 and 5 μg/ml concentrations)”

CMV promoter = experiment: EC50 analysis for CMV promoter driven RFP inhibition (non-specific activity) by flow cytometry in RBL cells; format: cell-based, cytomegalovirus; conditions: 48-65 h, read-out: EC50 RFP alteration
Experimental: (§2) RBL cells expressing GFP under coronin 1 promoter and optionally with RBL cells expressing RFP under CMV promoter were mixed in equal numbers and incubated with the compounds at indicated concentrations for 48-65 h and analyzed by flow cytometry for alteration in coronin 1 promoter (GFP fluorescence), CMV promoter (RFP fluorescence) values. In addition, the cells were labelled with live-dead marker for assessing cell viability status by flow cytometry. Cycloheximide (CHX) serves as positive control and DMSO serves as negative controls. Effective Concentration (EC50) values for coronin 1 promoter inhibition via GFP fluorescence analysis, non-specific promoter inhibition via CMV promoter driven-RFP fluorescence analysis and cell viability via live/dead staining as a measure for toxicity in flow cytometry for compounds (10-22 and 50a-65a) are shown in Table 6 and Table 7. Based on the EC50 analysis of the inhibition of coronin 1 promoter driven GFP fluorescence the (4S,7R)-configurated eutomers were identified (Structures FIG. 9A-C). This is exemplified for compounds containing two stereocenters by eutomers 11c and 13a. […] Subsequent EC50 evaluations (Table 7) were performed with compound 13a as standard for relative potency normalized to a value of 1.00 (relative potency calculated as [EC50 GFP inhibition 13a]/[EC50 GFP inhibition compound of interest]).

RBL cells = experiment: Cell viability by live-dead staining (cytotoxicity), flow cytometry; format: cell-based, Rat; conditions: Rattus norvegicus, RBL, cell viability via live/dead staining, 48-65 h, read-out: EC50 Toxicity
Experimental: as §2

coronin 1 promoter [3] = experiment: EC50 analysis for coronin 1 promoter driven GFP inhibition by flow cytometry in RBL cells; format: cell-based; conditions: RBL, RBL cells, 48-65 h, flow cytometry
Experimental: RBL cells that had been incubated with the indicated calcium channel blockers (amlodipine (3.125 μM) and verapamil (8 μM) concentrations for 48 h were analyzed by flow cytometry for any alteration in coronin 1 promoter driven GFP fluorescence. The results reveal no effect of calcium channel blockers on coronin 1 promoter activity (FIG. 4).
as §2

[4] = system: BRD2, BRD3 and BRD4 proteins; conditions: reported TPP data; cited from earlier work

Compound	activity at 5 µg/mL [1]	activity at 5 µg/mL (coronin 1 promoter [2])	EC50 (CMV promoter)	EC50 (RBL cells)	EC50 (coronin 1 promoter [3])	thermal stabilization of BRD2, BRD3 and BRD4 proteins [4]
CCSCCOC(=O)C1=C(C)NC2=C(C(=O)CC(c3ccccc3OC)C2)C1c1ccsc1 (stereo not shown) [Comp. 3, 2-(ethylthio)ethyl-7-(2-methoxyphenyl)-2-methyl-5-oxo-4-(3-thienyl)-1,4,5,6,7,8-hexahydro-3-quinolinecarboxylate]	80%	63%	–	–	–	–
COC(=O)C1=C(C)NC2=C(C(=O)CC(c3ccccc3)C2)C1c1cccc(O)c1 (stereo not shown) [Comp. 4, methyl 4-(3-hydroxyphenyl)-2-methyl-5-oxo-7-phenyl-1,4,5,6,7,8-hexahydroquinoline-3-carboxylate]	85%	60%	–	–	–	–
COC(=O)C1=C(C)NC2=C(C(=O)CC(c3cccs3)C2)C1c1cccc(O)c1 (stereo not shown) [Comp. 5, methyl-4-(3-hydroxyphenyl)-2-methyl-5-oxo-7-(2-thienyl)-1,4,5,6,7,8-hexahydro-3-quinolinecarboxylate]	108%	74%	–	–	–	–
CC1=C(C(=O)OCC2CCCO2)C(c2cccc([N+](=O)[O-])c2)C2=C(CC(c3cccs3)CC2=O)N1 (stereo not shown) [Comp. 6, tetrahydro-2-furanylmethyl-2-methyl-4-(3-nitrophenyl)-5-oxo-7-(2-thienyl)-1,4,5,6,7,8-hexahydro-3-quinolinecarboxylate]	75%	68%	–	–	–	–
COC(=O)C1=C(C)NC2=C(C(=O)CC(c3ccc(OC)cc3)C2)C1c1cccc(O)c1 (stereo not shown) [Comp. 8, methyl-4-(3-hydroxyphenyl)-7-(4-methoxyphenyl)-2-methyl-5-oxo-1,4,5,6,7,8-hexahydro-3-quinolinecarboxylate]	97%	87%	–	–	–	–
COC(=O)C1=C(C)NC2=C(C(=O)CC(c3ccccc3OC)C2)C1c1cccs1 (stereo not shown) [Comp. 9, methyl-7-(2-methoxyphenyl)-2-methyl-5-oxo-4-(2-thienyl)-1,4,5,6,7,8-hexahydro-3-quinolinecarboxylate]	97%	58%	–	–	–	–
COc1ccccc1C1CC(=O)C2=C(C1)NC(C)=C(C(=O)OCC1CCCO1)C2c1ccccc1F (stereo not shown) [Comp. 10, tetrahydro-2-furanylmethyl-4-(2-fluorophenyl)-7-(2-methoxyphenyl)-2-methyl-5-oxo-1,4,5,6,7,8-hexahydro-3-quinolinecarboxylate]	110%	48%	1000 nM	> 7500 nM	800 nM	–
COc1ccccc1C1CC(=O)C2=C(C1)NC(C)=C(C(=O)OCC1CCCO1)C2c1cccc(O)c1 (stereo not shown) [Comp. 12, tetrahydro-2-furanylmethyl-4-(3-hydroxyphenyl)-7-(2-methoxyphenyl)-2-methyl-5-oxo-1,4,5,6,7,8-hexahydro-3-quinolinecarboxylate]	153%	46%	> 1000 nM	> 3000 nM	340 nM	–
COC(=O)C1=C(C)NC2=C(C(=O)CC(c3ccc(Cl)cc3)C2)C1c1cccc(O)c1 (stereo not shown) [Comp. 22, methyl 7-(4-chlorophenyl)-4-(3-hydroxyphenyl)-2-methyl-5-oxo-1,4,5,6,7,8-hexahydroquinoline-3-carboxylate]	70%	55%	–	–	–	–
COc1cc2c(cc1-c1c(C)noc1C)ncc1[nH]c(=O)n([C@H](C)c3ccccn3)c12 [IBET-151]	–	–	–	–	–	thermal stabilization
CC(=O)Nc1c(F)cc(C(=O)N[C@H]2CC[C@H](O)CC2)cc1O[C@@H](C)c1ccccc1 [IBET-BD2]	–	–	–	–	–	thermal stabilization
Cc1sc2c(c1C)C(c1ccc(Cl)cc1)=N[C@@H](CC(=O)OC(C)(C)C)c1nnc(C)n1-2 [JQ1]	–	–	–	–	–	thermal stabilization
COc1cc(OC)c2c(=O)[nH]c(-c3cc(C)c(OCCO)c(C)c3)nc2c1 [RVX-208]	–	–	–	–	–	thermal stabilization
COc1ccccc1C1CC(=O)C2=C(C1)NC(C)=C(C(=O)OC1CCOCC1)C2c1cccc(O)c1 (stereo not shown) [compound 13, tetrahydro-2H-pyran-4-yl-4-(3-hydroxyphenyl)-7-(2-methoxyphenyl)-2-methyl-5-oxo-1,4,5,6,7,8-hexahydro-3-quinolinecarboxylate]	–	–	> 2500 nM	> 2500 nM	120 nM	–
COc1ccccc1C1CC(=O)C2=C(C1)NC(C)=C(C(=O)OCC1CCOCC1)C2c1cccc(O)c1 (stereo not shown) [compound 18, (tetrahydro-2H-pyran-4-yl)methyl 4-(3-hydroxyphenyl)-7-(2-methoxyphenyl)-2-methyl-5-oxo-1,4,5,6,7,8-hexahydroquinoline-3-carboxylate]	–	–	> 2500 nM	> 2500 nM	200 nM	–
